Data as given in US20260215420A1 (Solasta Bio Limited, priority 2022, published 2026).
Each block holds one compound with its values, some of them ahead of it.

Experiments:
[1] = gut and MT tissue and contents of final-stage P. xylostella larvae in Schneider's medium; conditions: Plutella xylostella, 25° C., up to 24 h
[2] = system: Myzus persicae; test: Leaf dip assay for aphids; assay type: in vivo; conditions: unformulated peptide, compared to vehicle and Spirotetramat, up to 120 hours
Description: Leaf Dip Assay—Aphids or Plutella xylostella Based on IRAC susceptibility test method 019 (https://irac-online.org/methods/aphids-adultnymphs/). Fill a small 4 cm wide 3 cm high dish with a 1% agar solution (ensuring 1 cm gap between the agar and the lid) and leave to set. Dip a 2.5 cm leaf disc into 3 ml of treatment solution allowing the treatment to coat the leaf. Leave the disc to dry for 1 hour and place onto the set agar. Place insects (aphids or Plutella xylostella) onto each of the leaf discs. Each unit is sealed with a close-fitting, ventilated lid. Place the agar dishes in a small plastic tray lined with moist tissue paper and ensure the water trays in the bottom of the incubator are filled with clean water and place within the incubator. An assessment of mortality is made at 72, 96 and 120 hours. Leaf dip assays for aphids were performed with SB-P-65, and compared to a negative control vehicle and a current commercial insecticide Spirotetramat. The activity of SB-P-65 is shown in FIGS. 20 and 21; SB-P-65 has good activity whilst being eco-friendly and targeted to specific pests unlike broad spectrum chemical insecticides such as Spirotetramat. Leaf dip assays for aphids were performed with SB-P-66, and compared to a negative control vehicle and a current commercial insecticide Spirotetramat. […]

[3] = assay type: in vitro ADME, Plutella xylostella
Description: Plutella xylostella Tissue Biostability Study of SB-P-70 and SB-P-103
SB-P-70 and SB-P-103 were incubated with the gut and MT tissue and contents of final-stage P. xylostella larvae in Schneider's medium at 25° C. Control samples were prepared with peptides in Schneider's medium with no tissue and tissue in Schneider's medium with no peptides. The condition of the peptides after incubation with the tissue was assessed by LC-MS at: 4 h; 8 h; 16 h; and 24 h time points (FIGS. 13 and 14).
In contrast, SB-P-103 remained 44% intact after 24 h tissue incubation.

[4] = system: Plutella xylostella; test: Leaf dip assay for Plutella xylostella; assay type: in vivo; conditions: unformulated peptide, compared to vehicle and Chlorantraniliprole
Description: Leaf Dip Assay—Aphids or Plutella xylostella Based on IRAC susceptibility test method 019 (https://irac-online.org/methods/aphids-adultnymphs/). Fill a small 4 cm wide 3 cm high dish with a 1% agar solution (ensuring 1 cm gap between the agar and the lid) and leave to set. Dip a 2.5 cm leaf disc into 3 ml of treatment solution allowing the treatment to coat the leaf. Leave the disc to dry for 1 hour and place onto the set agar. Place insects (aphids or Plutella xylostella) onto each of the leaf discs. Each unit is sealed with a close-fitting, ventilated lid. Place the agar dishes in a small plastic tray lined with moist tissue paper and ensure the water trays in the bottom of the incubator are filled with clean water and place within the incubator. An assessment of mortality is made at 72, 96 and 120 hours. Leaf dip assays for Plutella xylostella were performed with SB-P-70, and compared to a negative control vehicle and a current commercial insecticide Chlorantraniliprole. The activity of SB-P-70 is shown in FIG. 6; SB-P-70 has good activity whilst being eco-friendly and targeted to specific pests unlike broad spectrum chemical insecticides such as Chlorantraniliprole

[5] = system: Spodoptera frugiperda; test: Lepidoptera mortality assay (artificial diet); assay type: in vivo; conditions: 1×10^−4 M in artificial diet, L1 larvae, 168 hrs, compared to vehicle and DDT
Excerpt: Lepidoptera Mortality Assay Against Spodoptera frugiperda Frontier Lepidoptera Artificial diet was made up by preparing agar at 1% and then mixing it with artificial diet powder. Peptide solution was aliquoted in 10 cells and diet poured straight onto it. The final concentration of the peptide was 1×10^−4 M, and each peptide was aliquoted in 10 cells. Once the diet solidified and cooled down, one L1 larvae was infested in each cell. The trays were sealed with heat and let larva were allowed to develop for 168 hrs. Finally, pupation and mortality were scored for. Lepidoptera mortality assays were performed with SB-P-70, and compared to a negative control vehicle and the insecticide dichlorodiphenyltrichloroethane (DDT). The activity of SB-P-70 is shown in FIG. 32; SB-P-70 has good activity whilst being eco-friendly and targeted to specific pests unlike broad spectrum chemical insecticides such as DDT.

cleaved bond [1]: Ser5-Ala6, major
Compound: H-KVKFSAWG-NH2

Compound: CC(C)[C@H](NC(=O)C(NC(=O)[C@H](CCCCN)NC(=O)[C@H](CCC(N)=O)NC(=O)[C@@H](N)CCCNC(=N)N)[C@@H](C)O)C(=O)N[C@@H](Cc1ccccc1)C(=O)N[C@@H](CO)C(=O)N[C@@H](CO)C(=O)N[C@@H](Cc1c[nH]c2ccccc12)C(=O)NCC(N)=O (stereo partly shown) [SB-P-65, Hy-RQKTVFSSWG-[NH2]]
activity against Myzus persicae (mortality) [2]: good activity

Compound: H-PAFSSWG-NH2 [SB-P-66, Hy-PAFSSWG-[NH2]]
activity against Myzus persicae (mortality) [2]: good activity

condition of the peptide after incubation with the tissue [3]: completely degraded
site of proteolytic cleavage [3]: between Ser5 and Ala6
Compound: H-KVKFSAWG-NH2 [SB-P-70, Hy-KVKFSAWG-[NH2]]
activity against Plutella xylostella (mortality) [4]: good activity
activity against Spodoptera frugiperda (pupation and mortality) [5]: good activity
